The target of experiment [1] is HIF2α PAS-B domain (236-350, biotinylated on the N-terminus) (Homo sapiens (Human), UniProt Q99814).
Experimental: The assay buffer contained 50 mM Tris-HCl pH7 (Sigma), 20 mM NaCl (Fluka), 0.02% BSA (Sigma), 0.005% Triton X-100 (Pierce) and 1 mM DTT (Fluka). After a 30 min incubation period, 5 μL Streptavidin PVT SPA Beads (Perkin Elmer) at 1.2 mg/mL, diluted in the buffer, were added.
The subject of experiment [2] is HIF2α-regulated expression of the endogenous target gene hEGLN3 in 786-O cells. Kind of experiment: Cellular iScript assay for HIF2α (quantitative RT-PCR of hEGLN3). The experiment is classed as cell-based, human. As to conditions: Homo sapiens, 786-0, 48 hours incubation. The gist of the method: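 786-O cells were exposed to eleven 2-fold compound dilutions for 48 h at 37° C. Lysates underwent one-step TaqMan qRT-PCR for hEGLN3 with beta-actin as reference; 2^(−ΔΔCt) versus DMSO, as % of control, was fit with a four-parameter model to give IC50.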

For experiment [3], the system named is HIF2α-dependent transcription in 786-O-HRE-Luc cells. The experiment is described as follows: In vitro cellular hypoxia response element (HRE) reporter gene assay (RGA) for HIF2α. The experiment is classed as cell-based, human. As to conditions: Homo sapiens, 24 hours incubation. The gist of the method:
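Renal carcinoma cells carrying a 4×HRE-driven PEST-destabilised firefly luciferase were treated a day after seeding with eleven 2-fold compound dilutions (0.1% DMSO) for 24 h at 37° C. BrightGlo luminescence, background-subtracted and expressed as % of DMSO control, was fitted four-parametrically for IC50.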
For orientation: Reporter assays use an easily measured gene product as a stand-in for the process of interest.

The structures appear in SMILES notation.

HIF2α PAS-B domain (236-350, biotinylated on the N-terminus), sequence (Q99814 236-350): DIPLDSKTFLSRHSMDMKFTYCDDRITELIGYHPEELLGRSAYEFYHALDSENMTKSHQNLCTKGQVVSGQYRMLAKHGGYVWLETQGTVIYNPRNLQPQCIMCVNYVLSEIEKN

What is called IC50 is the midpoint of a concentration-inhibition curve. On to `Fc1c(OC(F)F)ccc2c1OCC[C@@]21CN2C=C(C(F)(F)F)C=C(OC(F)F)C2=N1` [Example 54, (S)-7,8′-bis(difluoromethoxy)-8-fluoro-6′-(trifluoromethyl)-3′ H-spiro[chroman-4,2′-imidazo[1,2-a]pyridine]], for which the values for the IC50 in experiment [1], in experiment [2] and in experiment [3] were 33 nM, 85 nM and 317 nM, respectively.
For `FC(F)OC1=CC(C(F)(F)F)=CN2C[C@@]3(CCOc4c(C(F)F)cccc43)N=C12` [Example 55, (S)-8′-(difluoromethoxy)-8-(difluoromethyl)-6′-(trifluoromethyl)-3′H-spiro[chroman-4,2′-imidazo[1,2-a]pyridine]], in that order: 9 nM, 115 nM and 7650 nM.
In the same order, the values of `FC(F)OC1=CC(C(F)(F)F)=CN2C[C@@]3(CCOc4c3ccnc4Cl)N=C12` [Example 56, (S)-8′-chloro-8-(difluoromethoxy)-6-(trifluoromethyl)-2′,3′-dihydro-3H-spiro[imidazo[1,2-a]pyridine-2,4′-pyrano[2,3-c]pyridine]] are 13 nM, 164 nM and 6660 nM.
In the same order, the values of `Fc1c(Br)ccc2c1OC[C@H](F)[C@@]21CN2C=C(C(F)(F)F)C=C(OC(F)F)C2=N1` [Example 57, (2′S,3R)-7-bromo-8′-(difluoromethoxy)-3,8-difluoro-6′-(trifluoromethyl)-3′H-spiro[chroman-4,2′-imidazo[1,2-a]pyridine]] are 12 nM, 62 nM and 196 nM.
On to `Fc1c(Br)ccc2c1OC[C@@H](F)[C@@]21CN2C=C(C(F)(F)F)C=C(OC(F)F)C2=N1` [Example 58, (2′S,3S)-7-bromo-8′-(difluoromethoxy)-3,8-difluoro-6′-(trifluoromethyl)-3′H-spiro[chroman-4,2′-imidazo[1,2-a]pyridine]], for which the half-inhibitory concentration (IC50) in experiment [1] was found to be 8 nM; in experiment [2] it was 173 nM; in experiment [3] it was 183 nM.
For `FC(F)OC1=CC(C(F)(F)F)=CN2C[C@@]3(N=C12)c1ccc(Br)cc1OC[C@@H]3F` [Example 59, (2′S,3R)-7-bromo-8′-(difluoromethoxy)-3-fluoro-6′-(trifluoromethyl)-3′H-spiro[chroman-4,2′-imidazo[1,2-a]pyridine]], in that order: 12 nM, 55 nM and 73 nM.
For `FC(F)OC1=CC(C(F)(F)F)=CN2C[C@@]3(N=C12)c1ccc(I)cc1OC[C@@H]3F` [Example 60, (2′S,3R)-8′-(difluoromethoxy)-3-fluoro-7-iodo-6′-(trifluoromethyl)-3′H-spiro[chroman-4,2′-imidazo[1,2-a]pyridine]], in that order: 6 nM, 27 nM and 65 nM.
`FC(F)OC1=CC(C(F)(F)F)=CN2C[C@@]3(N=C12)c1ccc(C(F)(F)F)cc1OC[C@@H]3F` [Example 61, (2′S,3R)-8′-(difluoromethoxy)-3-fluoro-6′,7-bis(trifluoromethyl)-3′H-spiro[chroman-4,2′-imidazo[1,2-a]pyridine]]: the results for the half-inhibitory concentration (IC50) in experiment [1], in experiment [2] and in experiment [3] were 17 nM, 51 nM and 143 nM, respectively.
In the same order, the values of `Fc1cccc2c1OC[C@H](F)[C@@]21CN2C=C(C(F)(F)F)C=C(OC(F)F)C2=N1` [Example 62, (2′S,3R)-8′-(difluoromethoxy)-3,8-difluoro-6′-(trifluoromethyl)-3′H-spiro[chroman-4,2′-imidazo[1,2-a]pyridine]] are 13 nM, 102 nM and 484 nM.
In the same order, the values of `Fc1cccc2c1COC[C@@]21CN2C=C(C(F)(F)F)C=C(OC(F)F)C2=N1` [Example 63, (S)-8-(difluoromethoxy)-8′-fluoro-6-(trifluoromethyl)-3H-spiro[imidazo[1,2-a]pyridine-2,4′-isochroman]] are 11 nM, 197 nM and 465 nM.
For `N#CC1=CN2C[C@@]3(CCSc4c3ccc(Cl)c4F)N=C2C(OC(F)F)=C1` [Example 64, (S)-7′-chloro-8-(difluoromethoxy)-8′-fluoro-3H-spiro[imidazo[1,2-a]pyridine-2,4′-thiochroman]-6-carbonitrile], in that order: 10 nM, 51 nM and 236 nM.
As to `Fc1cccc2c1SCC[C@@]21CN2C=C(C(F)(F)F)C=C(OC(F)F)C2=N1` [Example 65, (S)-8-(difluoromethoxy)-8′-fluoro-6-(trifluoromethyl)-3H-spiro[imidazo[1,2-a]pyridine-2,4′-thiochroman]], the values for the IC50 in experiment [1], in experiment [2] and in experiment [3] were no more than 3 nM, 30 nM and 114 nM, respectively.
For `N#CC1=CN2C[C@@]3(CCSc4c(F)cccc43)N=C2C(OC(F)F)=C1` [Example 66, (S)-8-(difluoromethoxy)-8′-fluoro-3H-spiro[imidazo[1,2-a]pyridine-2,4′-thiochroman]-6-carbonitrile], in that order: no more than 8 nM, 47 nM and 385 nM.
For `Fc1c(C(F)(F)F)ncc2c1SCC[C@@]21CN2C=C(C(F)(F)F)C=C(OC(F)F)C2=N1` [Example 67, (S)-8-(difluoromethoxy)-8′-fluoro-6,7′-bis(trifluoromethyl)-2′,3′-dihydro-3H-spiro[imidazo[1,2-a]pyridine-2,4′-thiopyrano[3,2-c]pyridine]], in that order: 15 nM, 57 nM and 107 nM.
As to `Fc1cccc2c1OCCC[C@@]21CN2C=C(C(F)(F)F)C=C(OC(F)F)C2=N1` [Example 69, (S)-8′-(difluoromethoxy)-9-fluoro-6′-(trifluoromethyl)-3,4-dihydro-2H,3′H-spiro[benzo[b]oxepine-5,2′-imidazo[1,2-a]pyridine]], the IC50 in experiment [1] stood at 9 nM; in experiment [2], 44 nM; in experiment [3], 273 nM.
With `FC(F)OC1=CC(C(F)(F)F)=CN2C[C@@]3(CCC(F)(F)c4c3ccnc4C(F)F)N=C12` [Example 70, (S)-8-(difluoromethoxy)-1′-(difluoromethyl)-8′,8′-difluoro-6-(trifluoromethyl)-7′,8′-dihydro-3H,6′H-spiro[imidazo[1,2-a]pyridine-2,5′-isoquinoline]], the figures for the IC50 in experiment [1], in experiment [2] and in experiment [3] were 20 nM, 96 nM and 1670 nM, respectively.
Consider `N#CC1=CN2C[C@@]3(CCc4cc(I)ccc43)N=C2C(OC(F)F)=C1` [Example 73, (S)-8-(difluoromethoxy)-5′-iodo-2′,3′-dihydro-3H-spiro[imidazo[1,2-a]pyridine-2,1′-indene]-6-carbonitrile], for which the IC50 was no more than 6 nM in experiment [1], 135 nM in experiment [2] and 542 nM in experiment [3].
For `Fc1c(C(F)(F)F)ccc2c1CC[C@@]21CN2C=C(C(F)(F)F)C=C(OC(F)F)C2=N1` [Example 74, (S)-8-(difluoromethoxy)-4′-fluoro-5′,6-bis(trifluoromethyl)-2′,3′-dihydro-3H-spiro[imidazo[1,2-a]pyridine-2,1′-indene]], in that order: no more than 10 nM, 108 nM and 517 nM.
In the same order, the values of `COc1ccc2c(c1F)CCC[C@@]21CN2C=C(C(F)(F)F)C=C(F)C2=N1` [Example 76, (S)-5′,8-difluoro-6′-methoxy-6-(trifluoromethyl)-3′,4′-dihydro-2′H,3H-spiro[imidazo[1,2-a]pyridine-2,1′-naphthalene]] are 49 nM, 175 nM and 777 nM.
In the same order, the values of `FC1=CC(C(F)(F)F)=CN2C[C@@]3(CCCc4cc(C(F)(F)F)ccc43)N=C12` [Example 77, (S)-8-fluoro-6,6′-bis(trifluoromethyl)-3′,4′-dihydro-2′H,3H-spiro[imidazo[1,2-a]pyridine-2,1′-naphthalene]] are no more than 3 nM, 103 nM and 600 nM.
As for `COC1=CC(C(F)(F)F)=CN2C[C@@]3(CCCc4c3ccc(Br)c4F)N=C12` [Example 80, (S)-6′-bromo-5′-fluoro-8-methoxy-6-(trifluoromethyl)-3′,4′-dihydro-2′H,3H-spiro[imidazo[1,2-a]pyridine-2,1′-naphthalene]], the figures for the IC50 in experiment [1], in experiment [2] and in experiment [3] were 11 nM, 106 nM and 2040 nM, respectively.
In the same order, the values of `Fc1ccc2c(c1Cl)CCC[C@@]21CN2C=C(C(F)(F)F)C=C(OC(F)F)C2=N1` [Example 82, (5)-5′-chloro-8-(difluoromethoxy)-6′-fluoro-6-(trifluoromethyl)-3′,4′-dihydro-2′H,3H-spiro[imidazo[1,2-a]pyridine-2,1′-naphthalene]] are no more than 3 nM, 39 nM and 155 nM.
In the case of `Fc1c(Br)ccc2c1[C@@H](F)[C@H](F)C[C@@]21CN2C=C(C(F)(F)F)C=C(OC(F)F)C2=N1` [Example 83, (2S,3′R,4′R)-6′-bromo-8-(difluoromethoxy)-3′,4′,5′-trifluoro-6-(trifluoromethyl)-3′,4′-dihydro-2′H,3H-spiro[imidazo[1,2-a]pyridine-2,1′-naphthalene]], the IC50 turned out to be 9 nM in experiment [1], 30 nM in experiment [2] and 27 nM in experiment [3].
For `COc1ccc2c(c1F)CCC[C@@]21CN2C=C(C(F)(F)F)C=C(OC(F)F)C2=N1` [Example 84, (S)-8-(difluoromethoxy)-5′-fluoro-6′-methoxy-6-(trifluoromethyl)-3′,4′-dihydro-2′H,3H-spiro[imidazo[1,2-a]pyridine-2,1′-naphthalene]], in that order: 3 nM, 69 nM and 184 nM.

The record behind these values is patent publication US12226405B2, “Compounds and compositions for inhibiting the activity of HIF2-alpha and their methods of use” (Novartis AG, priority 2020, dated 2025).
